According to patent publication US8435929B2, “1-aminocyclopropane carboxylic acid as a fruit thinner” (Valent BioSciences Corporation, priority 2009, dated 2013):

Key:
O'Henry peaches = assay: Field thinning study, fruit set, fruit weight and crop safety of O'Henry peaches
Chardonnay grapes = assay: Thinning study on Chardonnay grapes (cluster weight, berry weight, berries per rachis, rachis length); assay type: in vivo, grape; conditions: application at bloom
From the text: Application of ACC on grapes during bloom reduced the cluster weight and number of berries/cm rachis (Table 15). However, ACC applications produce the highly undesirable effect of reducing the rachis length and cluster size. Similar results have been seen in trials on other grape varieties in Michigan, California, and Australia.

Pink Lady apples = assay: Field thinning study, fruit set of Pink Lady apples; assay type: in vivo, apple; conditions: for Number of fruit per limb / Total number of fruit: 5 days after full bloom
Summer Rich peaches = assay: Field thinning study, fruit set, fruit weight and crop safety of Summer Rich peaches
PF-27 peaches = assay: Field thinning study, ACC and ABA, fruit set of PF-27 peaches; assay type: in vivo, peach; conditions: application at shuck split
From the text: Application of ACC alone at shuck split reduced fruit set in a dose dependent manner (Table 10).

Babygold #5 peaches = assay: Scaffold gummosis rating of Babygold #5 peaches; assay type: in vivo, peach; conditions: in vivo
From the text: Gummosis is a physiological stress response in which sap oozes from fractures in tree bark and often leads to tree decline. Use of 2-chloroethylphosphonic acid as a stone fruit thinning has been limited because it can stimulate severe incidences of gummosis of stone fruit.

Babygold #5 peach = assay: Field thinning study, fruit set of Babygold #5 peach; assay type: in vivo
Rose Diamond nectarines = assay: Field thinning study, fruit set of Rose Diamond nectarines; assay type: in vivo, nectarine; conditions: application at late shuck fall
Fuji apples = assay: Field thinning study, fruit set and fruit weight of Fuji apples; assay type: in vivo, apple
From the text: ACC was foliar applied at the 10 or 20 mm fruit stage. […] Application of 100 ppm ACC was particularly effective in removing fruit when applied at the 20 mm fruit stage.
Similarly, ACC applications at petal fall were not effective for thinning Fuji apples, but later applications (10 and 20 mm) were effective (Table 14).

[1] = 500 ppm, application at petal fall, trial of Table 4
[2] = 500 ppm, application at petal fall, trial of Table 5 (other location)
[3] = 750 ppm, application at petal fall, trial of Table 4
[4] = 750 ppm, application at petal fall, trial of Table 5 (other location)
[5] = 100 ppm, application timing 10 mm
[6] = 100 ppm, application timing 20 mm
[7] = 300 ppm, application timing 10 mm
[8] = 300 ppm, application timing 20 mm
[9] = 1000 ppm, application timing 10 mm
[10] = 1000 ppm, application timing 20 mm

NC1(C(=O)O)CC1 [ACC, 1-aminocyclopropane carboxylic acid]
Crop load (percent) of treated trees compared to the untreated control (O'Henry peaches; 500 ppm at 15 mm fruit stage): 38% | Crop safety on vegetation (0-4 scale) (O'Henry peaches; 500 ppm at 15 mm fruit stage): 0.7 0-4 scale | Fruit weight at maturity (O'Henry peaches; 500 ppm at 15 mm fruit stage): 185 g | Percent fruit set (O'Henry peaches; 500 ppm at 15 mm fruit stage): 16% | Crop load (percent) of treated trees compared to the untreated control (O'Henry peaches; 500 ppm at petal fall): 79% | Crop safety on vegetation (0-4 scale) (O'Henry peaches; 500 ppm at petal fall): 0 0-4 scale | Fruit weight at maturity (O'Henry peaches; 500 ppm at petal fall): 200 g | Percent fruit set (O'Henry peaches; 500 ppm at petal fall): 23% | Crop load (percent) of treated trees compared to the untreated control (O'Henry peaches; 750 ppm at 15 mm fruit stage): 21% | Crop safety on vegetation (0-4 scale) (O'Henry peaches; 750 ppm at 15 mm fruit stage): 2.1 0-4 scale | Fruit weight at maturity (O'Henry peaches; 750 ppm at 15 mm fruit stage): 235 g | Percent fruit set (O'Henry peaches; 750 ppm at 15 mm fruit stage): 6% | Crop load (percent) of treated trees compared to the untreated control (O'Henry peaches; 750 ppm at petal fall): 55% | Crop safety on vegetation (0-4 scale) (O'Henry peaches; 750 ppm at petal fall): 0.5 0-4 scale | Fruit weight at maturity (O'Henry peaches; 750 ppm at petal fall): 205 g | Percent fruit set (O'Henry peaches; 750 ppm at petal fall): 11% | Berries per cm rachis (Chardonnay grapes; 100 ppm): 3.1 | Berry weight (Chardonnay grapes; 100 ppm): 1.2 g | Cluster weight (Chardonnay grapes; 100 ppm): 128 g | Rachis length (cm) (Chardonnay grapes; 100 ppm): 34 cm | Berries per cm rachis (Chardonnay grapes; 300 ppm): 2.9 | Berry weight (Chardonnay grapes; 300 ppm): 1.2 g | Cluster weight (Chardonnay grapes; 300 ppm): 78 g | Rachis length (cm) (Chardonnay grapes; 300 ppm): 23 cm | Berries per cm rachis (Chardonnay grapes; 1000 ppm): 1.6 | Berry weight (Chardonnay grapes; 1000 ppm): 1.1 g | Cluster weight (Chardonnay grapes; 1000 ppm): 24 g | Rachis length (cm) (Chardonnay grapes; 1000 ppm): 14 cm | Number of fruit per limb (Pink Lady apples; 100 ppm): 64 | Total number of fruit (Pink Lady apples; 100 ppm): 175 | Number of fruit per limb (Pink Lady apples; 300 ppm): 62 | Total number of fruit (Pink Lady apples; 300 ppm): 165 | Number of fruit per limb (Pink Lady apples; 500 ppm): 61 | Total number of fruit (Pink Lady apples; 500 ppm): 169 | Number of fruit per limb (Pink Lady apples; 1000 ppm): 58 | Total number of fruit (Pink Lady apples; 1000 ppm): 124 | Crop load (in words) (Pink Lady apples; highest rate tested (1000 ppm), early application (full bloom)): reduced crop load slightly | Crop load (percent) of treated trees compared to the untreated control (Summer Rich peaches; 500 ppm at 15 mm fruit stage): 34% | Crop safety on vegetation (0-4 scale) (Summer Rich peaches; 500 ppm at 15 mm fruit stage): 3.0 0-4 scale | Fruit weight at maturity (Summer Rich peaches; 500 ppm at 15 mm fruit stage): 144 g | Percent fruit set (Summer Rich peaches; 500 ppm at 15 mm fruit stage): 24% | Crop load (percent) of treated trees compared to the untreated control (Summer Rich peaches; 500 ppm at petal fall): 55% | Crop safety on vegetation (0-4 scale) (Summer Rich peaches; 500 ppm at petal fall): 0.5 0-4 scale | Fruit weight at maturity (Summer Rich peaches; 500 ppm at petal fall): 140 g | Percent fruit set (Summer Rich peaches; 500 ppm at petal fall): 39% | Crop load (percent) of treated trees compared to the untreated control (Summer Rich peaches; 750 ppm at 15 mm fruit stage): 24% | Crop safety on vegetation (0-4 scale) (Summer Rich peaches; 750 ppm at 15 mm fruit stage): 3.5 0-4 scale | Fruit weight at maturity (Summer Rich peaches; 750 ppm at 15 mm fruit stage): 169 g | Percent fruit set (Summer Rich peaches; 750 ppm at 15 mm fruit stage): 17% | Crop load (percent) of treated trees compared to the untreated control (Summer Rich peaches; 750 ppm at petal fall): 39% | Crop safety on vegetation (0-4 scale) (Summer Rich peaches; 750 ppm at petal fall): 0.8 0-4 scale | Fruit weight at maturity (Summer Rich peaches; 750 ppm at petal fall): 151 g | Percent fruit set (Summer Rich peaches; 750 ppm at petal fall): 28% | Leaf yellowing and leaf loss (Summer Rich peaches; application at petal fall, stated for both varieties (Summer Rich and O'Henry)): minimized leaf yellowing and leaf loss | Crop load (percent) of treated trees compared to the untreated control (PF-27 peaches; 100 ppm): 81% | Percent fruit set (PF-27 peaches; 100 ppm): 70% | Crop load (percent) of treated trees compared to the untreated control (PF-27 peaches; 300 ppm): 67% | Percent fruit set (PF-27 peaches; 300 ppm): 58% | Crop load (percent) of treated trees compared to the untreated control (PF-27 peaches; 1000 ppm): 15% | Percent fruit set (PF-27 peaches; 1000 ppm): 13% | Gummosis (in words) (Babygold #5 peaches): little gummosis | Percent fruit set (Babygold #5 peach; 100 ppm, application at bloom): 67% | Percent fruit set (Babygold #5 peach; 100 ppm, application at shuck split, 0.05% Regulaid adjuvant): 85% | Crop load (percent) of treated trees compared to the water control (Babygold #5 peach; 300 ppm, application at shuck split, 0.05% Regulaid adjuvant): 72% | Percent Fruit Set (Babygold #5 peach; 500 ppm, 10 mm fruitlet timing): 6.7% | Crop load (percent) of treated trees compared to the untreated control (Babygold #5 peach; [1]): 67% | Percent fruit set (Babygold #5 peach; [1]): 32% | Crop load (percent) of treated trees compared to the untreated control (Babygold #5 peach; [2]): 98% | Percent fruit set (Babygold #5 peach; [2]): 42% | Crop load (percent) of treated trees compared to the untreated control (Babygold #5 peach; [3]): 50% | Percent fruit set (Babygold #5 peach; [3]): 24% | Crop load (percent) of treated trees compared to the untreated control (Babygold #5 peach; [4]): 72% | Percent fruit set (Babygold #5 peach; [4]): 31% | Crop load (percent) of treated trees compared to the water control (Babygold #5 peach; 1000 ppm, application at shuck split, 0.05% Regulaid adjuvant): 14% | Crop load (percent) of treated trees compared to the untreated control (Rose Diamond nectarines; 125 ppm): 88% | Percent fruit set (Rose Diamond nectarines; 125 ppm): 60% | Crop load (percent) of treated trees compared to the untreated control (Rose Diamond nectarines; 250 ppm): 90% | Percent fruit set (Rose Diamond nectarines; 250 ppm): 61% | Crop load (percent) of treated trees compared to the untreated control (Rose Diamond nectarines; 500 ppm): 65% | Percent fruit set (Rose Diamond nectarines; 500 ppm): 44% | Crop load (percent) of treated trees compared to the untreated control (Rose Diamond nectarines; 1000 ppm): 24% | Percent fruit set (Rose Diamond nectarines; 1000 ppm): 16% | Fruit weight (Fuji apples; [5]): 95 g | Fruit/fruit cluster (Fuji apples; [5]): 0.79 | Fruit weight (Fuji apples; [6]): 130 g | Fruit/fruit cluster (Fuji apples; [6]): 0.54 | Fruit weight (Fuji apples; [7]): 117 g | Fruit/fruit cluster (Fuji apples; [7]): 0.66 | Fruit weight (Fuji apples; [8]): 132 g | Fruit/fruit cluster (Fuji apples; [8]): 0.41 | Fruit per fruit cluster (Fuji apples; 500 ppm, timing 10 mm (6-7 mm) (Table 14 trial)): 0.27 | Fruit per fruit cluster (Fuji apples; 500 ppm, timing 20 mm (Table 14 trial)): 0.33 | Fruit per fruit cluster (Fuji apples; 500 ppm, timing petal fall (Table 14 trial)): 0.49 | Fruit weight (Fuji apples; [9]): 157 g | Fruit/fruit cluster (Fuji apples; [9]): 0.28 | Fruit weight (Fuji apples; [10]): 161 g | Fruit/fruit cluster (Fuji apples; [10]): 0.03 | Fruit per fruit cluster (Fuji apples; 1000 ppm, timing 10 mm (6-7 mm) (Table 14 trial)): 0.10 | Fruit per fruit cluster (Fuji apples; 1000 ppm, timing petal fall (Table 14 trial)): 0.39 | Thinning of Fuji apples (in words) (Fuji apples; applications at petal fall): not effective
